Assay results reported in paper PMC8154124, “Design, Synthesis, Anticancer Evaluation, Enzymatic Assays, and a Molecular Modeling Study of Novel Pyrazole–Indole Hybrids” (ACS Omega, 2021).

Columns and labels:
[1] = system: human colorectal carcinoma (HCT-116); experiment: MTT cytotoxicity assay, HCT-116; type: cell-based; conditions: 48 h, mean ± SD
Procedure: (§1) The cells of human liver carcinoma (HepG2), human breast adenocarcinoma (MCF-7), human colorectal carcinoma (HCT-116), and human lung carcinoma (A549) were purchased from the American Type Culture Collection (Rockville, MD). All cells were maintained in a Dulbecco’s modified Eagle’s medium (DMEM), which was supplemented with 10% of heat-inactivated fetal bovine serum (FBS) and 100 U/mL penicillin and streptomycin each. The cells were grown at 37 °C in a humidified atmosphere of 5% CO2.
(§2) The cytotoxicity activities on the human liver carcinoma (HepG2), human breast adenocarcinoma (MCF-7), human colorectal carcinoma (HCT-116), and human lung carcinoma (A549) cell lines were estimated employing the 3-(4,5-dimethyl-2-thiazolyl)-2,5-diphenyl-2H-tetrazolium bromide (MTT) assay, which was grounded on the reduction of the tetrazolium salt by mitochondrial dehydrogenases in viable cells.[51],[52] The cells were dispensed in a 96-well sterile microplate (3 × 10^4 cells/well), followed by their incubation at 37 °C with a series of different concentrations of 10 μL of each compound or doxorubicin (positive control, in DMSO) for 48 h in a serum-free medium prior to the MTT assay. Subsequently, the media were carefully removed, and 40 μL of MTT (2.5 mg/mL) was added to each well and then incubated for an additional 4 h. Purple formazan dye crystals were solubilized by the addition of 200 μL of DMSO. The absorbance was measured at 570 nm using a SpectraMax Paradigm Multi-Mode microplate reader. The relative cell viability was expressed as the mean percentage of viable cells relative to the untreated control cells. All experiments were conducted in triplicate and were repeated on three different days. All of the values were represented as mean ± standard deviation (SD). The IC50s were determined by the SPSS probit analysis software program (SPSS Inc., Chicago, IL).

[2] = system: human breast adenocarcinoma (MCF-7); experiment: MTT cytotoxicity assay, MCF-7; type: cell-based; conditions: MCF7, 48 h, mean ± SD
Procedure: as §1, §2

[3] = system: human liver carcinoma (HepG2); experiment: MTT cytotoxicity assay, HepG2; type: cell-based; conditions: 48 h, mean ± SD
Procedure: as §1, §2

[4] = system: human lung carcinoma (A549); experiment: MTT cytotoxicity assay, A549; type: cell-based; conditions: 48 h, mean ± SD
Procedure: as §1, §2

melting point [°C] | Compound | IC50 [1] [µM] | IC50 [2] [µM] | IC50 [3] [µM] | IC50 [4] [µM]
 | CN1C(=O)C(=Nc2[nH]nc(Nc3ccccc3)c2C(=O)Nc2ccccc2)c2ccccc21 [5a, 5-(1-Methyl-2-oxoindolin-3-ylideneamino)-N-phenyl-3-(phenylamino)-1H-pyrazole-4-carboxamide] | 25.7 ± 3.5 | 28.3 ± 3.5 | 27.6 ± 3.1 | 42.8 ± 4.2
 | Cc1ccc(NC(=O)c2c(Nc3ccccc3)n[nH]c2N=C2C(=O)N(C)c3ccccc32)cc1 [5b, 5-(1-Methyl-2-oxoindolin-3-ylideneamino)-3-(phenylamino)-N-(4-methylphenyl)-1H-pyrazole-4-carboxamide] | 28.1 ± 3.5 | 48 ± 5.1 | 37.1 ± 4.3 | 46.7 ± 4.9
265 to 267 | COc1ccc(Nc2n[nH]c(N=C3C(=O)N(C)c4ccccc43)c2C(N)=O)cc1 [5c, 3-(4-Methoxyphenylamino)-5-(1-methyl-2-oxoindolin-3-ylideneamino)-1H-pyrazole-4-carboxamide] | 39.5 ± 4.5 | 22 ± 3.5 | 32.8 ± 3.8 | 40.7 ± 4.1
 | COc1ccc(Nc2n[nH]c(N=C3C(=O)N(C)c4ccccc43)c2C(=O)Nc2ccccc2)cc1 [5d, 3-(4-Methoxyphenylamino)-5-(1-methyl-2-oxoindolin-3-ylideneamino)-N-phenyl-1H-pyrazole-4-carboxamide] | 54.2 ± 5.5 | 46.4 ± 4.5 | 34.8 ± 3.9 | 56 ± 4.1
 | COc1ccc(Nc2n[nH]c(N=C3C(=O)N(C)c4ccccc43)c2C(=O)Nc2ccc(C)cc2)cc1 [5e, 3-(4-Methoxyphenylamino)-5-(1-methyl-2-oxoindolin-3-ylideneamino)-N-(4-methylphenyl)-1H-pyrazole-4-carboxamide] | 39.9 ± 4.2 | 61.8 ± 5.1 | 32 ± 3.9 | 77.7 ± 5.6
 | CCN1C(=O)C(=Nc2[nH]nc(Nc3ccccc3)c2C(=O)Nc2ccccc2)c2ccccc21 [5f, 5-(1-Ethyl-2-oxoindolin-3-ylideneamino)-N-phenyl-3-(phenylamino)-1H-pyrazole-4-carboxamide] | 28.9 ± 3.9 | 42.1 ± 4.7 | 23.7 ± 3.1 | 52.9 ± 4.5
 | CCN1C(=O)C(=Nc2[nH]nc(Nc3ccccc3)c2C(=O)Nc2ccc(C)cc2)c2ccccc21 [5g, 5-(1-Ethyl-2-oxoindolin-3-ylideneamino)-3-(phenylamino)-N-(4-methylphenyl)-1H-pyrazole-4-carboxamide] | 35.7 ± 3.9 | 54 ± 4.9 | 27.8 ± 3.5 | 46.8 ± 5.3
269 to 271 | CCN1C(=O)C(=Nc2[nH]nc(Nc3ccc(OC)cc3)c2C(N)=O)c2ccccc21 [5h, 5-(1-Ethyl-2-oxoindolin-3-ylideneamino)-3-(4-methoxyphenylamino)-1H-pyrazole-4-carboxamide] | 25.7 ± 4.3 | 25.4 ± 3.9 | 28.2 ± 3.5 | 41.9 ± 3.9
 | CCN1C(=O)C(=Nc2[nH]nc(Nc3ccc(OC)cc3)c2C(=O)Nc2ccccc2)c2ccccc21 [5i, 5-(1-Ethyl-2-oxoindolin-3-ylideneamino)-3-(4-methoxyphenylamino)-N-phenyl-1H-pyrazole-4-carboxamide] | 53.9 ± 5.7 | 30.1 ± 4.2 | 26.7 ± 3.1 | 47.8 ± 4.5
 | CCN1C(=O)C(=Nc2[nH]nc(Nc3ccc(OC)cc3)c2C(=O)Nc2ccc(C)cc2)c2ccccc21 [5j, 5-(1-Ethyl-2-oxoindolin-3-ylideneamino)-3-(4-methoxyphenylamino)-N-(4-methylphenyl)-1H-pyrazole-4-carboxamide] | 38.9 ± 4.1 | 63.7 ± 5.5 | 24.4 ± 2.9 | 57 ± 4.9
260 to 262 | COc1ccc(Nc2n[nH]c(N=Cc3c[nH]c4ccccc34)c2C(N)=O)cc1 [7c, 5-((1H-Indol-3-yl)methyleneamino)-3-(4-methoxyphenylamino)-1H-pyrazole-4-carboxamide] | 31.9 ± 3.8 | 22.2 ± 3.3 | 35.8 ± 3.9 | 43.4 ± 4.2
 | COc1ccc(Nc2n[nH]c(N=Cc3c[nH]c4ccccc34)c2C(=O)Nc2ccccc2)cc1 [7d, 5-((1H-Indol-3-yl)methyleneamino)-3-(4-methoxyphenylamino)-N-phenyl-1H-pyrazole-4-carboxamide] | 25.3 ± 3.5 | 17.4 ± 2.3 | 27.2 ± 3.5 | 58.7 ± 4.2
 | COc1ccc(Nc2n[nH]c(N=Cc3c[nH]c4ccccc34)c2C(=O)Nc2ccc(C)cc2)cc1 [7e, 5-((1H-Indol-3-yl)methyleneamino)-3-(4-methoxyphenylamino)-N-(4-methylphenyl)-1H-pyrazole-4-carboxamide] | 37.4 ± 4.1 | 16.2 ± 2.3 | 25.8 ± 3.5 | 40.8 ± 4.3
 | COc1cccc2c1C(=O)c1c(O)c3c(c(O)c1C2=O)C[C@@](O)(C(=O)CO)C[C@@H]3O[C@H]1C[C@H](N)[C@H](O)[C@H](C)O1 [doxorubicin, reference compound] | 40 ± 3.9 | 64.8 ± 4.1 | 24.7 ± 3.2 | 58.1 ± 4.1
